The target in one experiment is T1, CDK4/cyclin D3 (Homo sapiens, UniProt P11802).
T1 construct: purchased Carna Biosciences, Inc. QS S Assist CDK4/Cyclin D3_FP Kit
T1 sequence (P11802 whole entry): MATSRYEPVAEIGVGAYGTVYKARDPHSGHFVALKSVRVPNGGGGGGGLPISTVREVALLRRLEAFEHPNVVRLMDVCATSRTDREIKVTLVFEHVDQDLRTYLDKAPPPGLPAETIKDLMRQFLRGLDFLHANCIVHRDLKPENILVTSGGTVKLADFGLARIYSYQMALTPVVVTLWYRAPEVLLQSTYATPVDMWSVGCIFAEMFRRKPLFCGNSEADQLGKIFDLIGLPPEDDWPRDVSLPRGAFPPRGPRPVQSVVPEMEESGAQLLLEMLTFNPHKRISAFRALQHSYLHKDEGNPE
T1 sequence (P30281 whole entry partner): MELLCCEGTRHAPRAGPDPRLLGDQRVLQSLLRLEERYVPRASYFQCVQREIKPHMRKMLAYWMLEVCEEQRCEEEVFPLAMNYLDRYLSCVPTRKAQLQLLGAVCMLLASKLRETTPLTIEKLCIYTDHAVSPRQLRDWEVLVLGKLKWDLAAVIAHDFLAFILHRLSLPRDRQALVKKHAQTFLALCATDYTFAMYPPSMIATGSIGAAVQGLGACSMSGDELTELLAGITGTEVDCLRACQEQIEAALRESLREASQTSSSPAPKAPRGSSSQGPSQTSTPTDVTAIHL
As to the kind of experiment: Human CDK4/cyclin D3 inhibitory activity (QS S Assist CDK4/Cyclin D3_FP Kit, IMAP fluorescence polarization). In kind it is biochemical. Particulars: 50% inhibitory concentration against CDK4/cyclin D3, given as class symbol. As for the experimental part: Human CDK4/Cyclin D3 Inhibitory Activity
Each compound was analyzed for CDK4/cyclin D3 inhibitory activity with an assay kit (QS S Assist CDK4/Cyclin D3_FP Kit, available from Carna Biosciences, Inc.). This assay kit determines kinase activity on the basis of the IMAP technology by Molecular Devices. Specifically, the kinase activity is determined through quantification of a variation in fluorescent polarization caused by binding of a kinase-phosphorylated fluorescent substance to an IMAP-binding reagent.
Each solution was prepared with the 10× assay buffer attached to the kit or a separately prepared assay buffer having the same composition as the assay buffer attached to the kit. An assay buffer was prepared by 10-fold dilution of the 10× assay buffer with distilled water. The assay buffer contains 20 mM HEPES (pH 7.4), 0.01% Tween20, and 2 mM dithiothreitol. A test compound solution was prepared by dilution of the test compound with dimethyl sulfoxide (DMSO) to a concentration 100 times higher than the final concentration and then 25-fold dilution with the assay buffer to a concentration four times higher than the final concentration. An ATP/substrate/Metal solution was prepared by five-fold dilution of the 5×ATP/substrate/Metal solution attached to the kit with the assay buffer. An enzyme solution was prepared by dilution of the CDK4/cyclin D3 attached to the kit with the assay buffer to a concentration twice higher than the final concentration (final concentration of CDK4/cyclin D3:12.5 to 25 ng/well). A detection reagent was prepared by five-fold dilution of each of 5× IMAP-binding buffer A and 5×IMAP-binding buffer B with distilled water, mixing of IMAP-binding buffer A with IMAP-binding buffer B at a ratio of 85:15, and 400-fold dilution of the IMAP-binding reagent with the mixed buffer.
The test compound solution (5 μL/well) and the ATP/substrate/Metal solution (5 μL/well) were added to a 384-well plate, and the enzyme solution or the assay buffer (10 μL/well) was added to the plate (total amount of the reaction mixture: 20 μL/well) for initiation of enzymatic reaction. […] The reaction was performed at room temperature for 45 minutes, and the detection reagent (60 μL/well) was then added to the plate, followed by further reaction for 30 minutes at room temperature under light shielding conditions. Subsequently, fluorescent polarization was determined with a microplate reader at an excitation wavelength of 485 nm and an emission wavelength of 535 nm.
The percent inhibition of enzyme activity was calculated for each test compound (note: enzyme activity=100% in the case of addition of the enzyme solution and addition of DMSO instead of the test compound solution, whereas enzyme activity=0% in the case of addition of the assay buffer instead of the enzyme solution, and addition of DMSO instead of the test compound solution). The percent inhibition of enzyme activity was fitted to a dose-response curve, to determine a 50% inhibitory concentration against CDK4/cyclin D3.
In each table, “+++” corresponds to IC50<10 nM, “++” 10 nM≤IC50<100 nM, and “+” 100 nM≤IC50.
Take `CC(O)c1cc2cnc(Nc3ccc(OCCN(C)C)cn3)nc2c(NC2CCC(C)(C)OC2)n1` (single isomer, unassigned) [Compound 689]: the IC50 was below 10 nM.

`CO[C@H](C)c1cc2cnc(Nc3ccc(CN4CCN(CCCC(=O)O)CC4)cn3)nc2c(NC(C)C)n1` [Compound 697] gave an IC50 of 10 to 100 nM. The same measure, in the same setting: for `CO[C@H](C)c1cc2cnc(Nc3ccc(N4CCN(CCC(=O)O)CC4)nn3)nc2c(NC(C)C)n1` [Compound 684, (R)-3-(4-(6-((8-(isopropylamino)-6-(l-methoxyethyl)pyrido[3,4-d]pyrimidin-2-yl)amino)pyridazin-3-yl)piperazin-1-yl)propanoic acid] the value was 10 to 100 nM.

The experiment is the same for the next values; noted with them: Human CDK4/cyclin D3 inhibitory activity; read-out: CDK4 Activity symbol.
Take `COC(C)c1cc2cnc(Nc3ccc(CN4CCNCC4)cn3)nc2c(N[C@H]2CC[C@](C)(C(=O)O)CC2)n1` (some centres unmarked) [Compound 436]: the IC50 was 10 to 100 nM. On the same count and under the same terms, for `COC(C)c1cc2cnc(Nc3ccc(CN4CCNCC4)cn3)nc2c(NCC(C)(C)OC)n1` (centres unmarked) [Compound 394] the value was 10 to 100 nM; for `COC(C)c1cc2cnc(Nc3ccc(CN4CCNCC4)cn3)nc2c(Nc2ccc(C(=O)O)cc2)n1` (centres unmarked) [Compound 448], at least 100 nM. Still for that read-out and setting: for `COC(C)c1cc2cnc(Nc3ccc(CN4CCNCC4)cn3)nc2c(NCCC2CCOCC2)n1` (centres unmarked) [Compound 428] the value was below 10 nM; for `COC(=O)[C@H]1CC[C@H](CNc2nc(C(C)OC)cc3cnc(Nc4ccc(CN5CCNCC5)cn4)nc23)CC1` (some centres unmarked) [Compound 390], below 10 nM; for `CO[C@H](C)c1cc2cnc(Nc3ccc(N4CCC(N(C)C)CC4)nn3)nc2c(NC(C)C)n1` [Compound 489], below 10 nM. For `CO[C@H](C)c1cc2cnc(Nc3ccc(N4CC5(CCC5)C4)cn3)nc2c(NC(C)C)n1` [Compound 480], the IC50 lay within 10 to 100 nM.

`CC(C)Nc1nc([C@@H](C)O)cc2cnc(Nc3ccc(N4CCN[C@H](C)C4=O)cn3)nc12` [Compound 506]: the IC50 lay in the range of 10 to 100 nM. `COC(C)c1cc2cnc(Nc3ccc(CN4CCNCC4)cn3)nc2c(NC[C@@H]2CCCO2)n1` (some centres unmarked) [Compound 408]: the IC50 lay in the range of 10 to 100 nM. On the same count and under the same terms, for `COC(C)c1cc2cnc(Nc3ccc(CN4CCNCC4)cn3)nc2c(NCC2COC2)n1` (centres unmarked) [Compound 396] the value was at least 100 nM; for `COC(C)c1cc2cnc(Nc3ccc(CN4CCNCC4)cn3)nc2c(NC23CCC(C(=O)O)(CC2)CC3)n1` (centres unmarked) [Compound 475], 10 to 100 nM.

In the case of `COC(C)c1cc2cnc(Nc3ccc(CN4CCNCC4)cn3)nc2c(NCC2CCCCO2)n1` (centres unmarked) [Compound 398], the IC50 is below 10 nM. Still for that read-out and setting: under `COC(C)c1cc2cnc(Nc3ccc(CN4CCNCC4)cn3)nc2c(NC2CCC(O)C2)n1` (centres unmarked) [Compound 427] stands below 10 nM. The same measure, in the same setting: under `CO[C@H](C)c1cc2cnc(Nc3ccc(N4CC(=O)NCC4=O)cn3)nc2c(NC(C)C)n1` [Compound 533] stands below 10 nM; under `CC(C)Nc1nc(C(C)O)cc2cnc(Nc3ccc(N4CCC(O)C(F)C4)nn3)nc12` (centres unmarked) [Compound 607], below 10 nM. Still for that read-out and setting: for `CC(C)Nc1nc([C@@H](C)O)cc2cnc(Nc3ccc(N4CCC(N5CCOCC5)CC4)nn3)nc12` [Compound 520] the value was below 10 nM; for `CC(C)Nc1nc(C(F)F)cc2cnc(Nc3ccc(C4CCOCC4)cn3)nc12` [Compound 160], below 10 nM; for `O[C@H]1CC[C@@H](Nc2nc(C(F)F)cc3cnc(Nc4ccc(N5CCNCC5)nn4)nc23)CC1` [Compound 425], below 10 nM. As to `COC(C)c1cc2cnc(Nc3ccc(CN4CCNCC4)cn3)nc2c(NCC2CC(F)(F)C2)n1` (centres unmarked) [Compound 465], the IC50 is below 10 nM. The same measure, in the same setting: for `COC(C)c1cc2cnc(Nc3ccc(CN4CCNCC4)cn3)nc2c(NCCN2CCNC2=O)n1` (centres unmarked) [Compound 393] the value was 10 to 100 nM. On the same count and under the same terms, for `CO[C@H](C)c1cc2cnc(Nc3ccc(N4CC5(CCNCC5)C4)cn3)nc2c(NC(C)C)n1` [Compound 482] the value was below 10 nM. Same read-out and setting: for `CO[C@H](C)c1cc2cnc(Nc3ccc(N4CCN(C)CC4)nn3)nc2c(NC(C)C)n1` [Compound 531] the value was below 10 nM; for `CC(C)Nc1nc([C@@H](C)O)cc2cnc(Nc3ccc(N(C)C(=O)CN)cn3)nc12` [Compound 538], below 10 nM.

Source of the values: patent US10124004B2, “Pyrido[3,4-d]pyrimidine derivative and pharmaceutically acceptable salt thereof” (Teijin Pharma Limited, priority 2015, dated 2018).
